The source of these data is ChEMBL document CHEMBL4043256, “Discovery of N-substituted 7-azaindoles as PIM1 kinase inhibitors - Part I” (Bioorg Med Chem Lett, 2017).

In assay [1] the target is Serine/threonine-protein kinase pim-2 (Homo sapiens, UniProt Q9P1W9). The assay can be described thus: Inhibition of PIM2 (unknown origin) assessed as reduction in full length human BAD phosphorylation at Ser112 residues by TR-FRET assay.
Assay [2] concerns the target Serine/threonine-protein kinase pim-3 (Homo sapiens, UniProt Q86V86). The assay can be described thus: Inhibition of PIM3 (unknown origin) assessed as reduction in full length human BAD phosphorylation at Ser112 residues by TR-FRET assay.
The target of assay [3] is Cell division cycle 7-related protein kinase (Homo sapiens, UniProt O00311). As to the kind of experiment: Inhibition of CDC7 (unknown origin).
Cell division cycle 7-related protein kinase, sequence (O00311 whole entry): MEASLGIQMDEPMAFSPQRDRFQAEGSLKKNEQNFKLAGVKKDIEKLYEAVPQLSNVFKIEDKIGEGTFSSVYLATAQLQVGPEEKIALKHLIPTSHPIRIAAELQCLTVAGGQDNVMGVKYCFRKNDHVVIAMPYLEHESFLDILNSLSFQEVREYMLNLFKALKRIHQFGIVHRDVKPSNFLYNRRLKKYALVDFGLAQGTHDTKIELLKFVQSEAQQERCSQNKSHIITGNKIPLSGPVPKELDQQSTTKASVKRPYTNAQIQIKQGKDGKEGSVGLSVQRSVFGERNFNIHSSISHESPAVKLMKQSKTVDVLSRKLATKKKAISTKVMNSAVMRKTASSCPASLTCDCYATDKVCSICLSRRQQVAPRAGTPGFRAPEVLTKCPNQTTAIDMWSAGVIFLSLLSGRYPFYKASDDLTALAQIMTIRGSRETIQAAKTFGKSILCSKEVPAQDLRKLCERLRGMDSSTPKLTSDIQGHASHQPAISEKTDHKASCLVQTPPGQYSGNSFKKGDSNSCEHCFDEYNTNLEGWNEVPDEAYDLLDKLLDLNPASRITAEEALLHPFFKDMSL
Assay [4] deals with Cyclin-dependent kinase 9 (Homo sapiens, UniProt P50750).
Cyclin-dependent kinase 9, sequence (P50750 whole entry): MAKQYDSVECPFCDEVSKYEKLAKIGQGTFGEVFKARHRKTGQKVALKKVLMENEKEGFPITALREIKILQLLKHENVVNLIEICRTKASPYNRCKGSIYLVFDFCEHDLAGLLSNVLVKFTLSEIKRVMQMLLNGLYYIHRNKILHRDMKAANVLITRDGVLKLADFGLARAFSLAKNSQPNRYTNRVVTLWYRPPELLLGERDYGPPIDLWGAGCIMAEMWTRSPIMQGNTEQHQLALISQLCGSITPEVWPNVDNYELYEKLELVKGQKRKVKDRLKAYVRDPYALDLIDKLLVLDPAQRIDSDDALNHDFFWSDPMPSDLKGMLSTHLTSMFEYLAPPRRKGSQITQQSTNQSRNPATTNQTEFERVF

Serine/threonine-protein kinase pim-2, sequence (Q9P1W9 whole entry): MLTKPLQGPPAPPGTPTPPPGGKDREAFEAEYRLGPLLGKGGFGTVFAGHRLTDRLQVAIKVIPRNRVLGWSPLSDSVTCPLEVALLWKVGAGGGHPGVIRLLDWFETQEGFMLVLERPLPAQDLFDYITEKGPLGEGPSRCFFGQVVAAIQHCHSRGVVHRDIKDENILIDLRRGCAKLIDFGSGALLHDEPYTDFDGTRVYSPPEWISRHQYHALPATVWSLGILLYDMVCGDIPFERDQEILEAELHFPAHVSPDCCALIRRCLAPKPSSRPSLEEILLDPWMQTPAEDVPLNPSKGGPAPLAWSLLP

With `Cc1c(-c2ccc(N3CCNCC3)cc2)n(C)c2nc(C(N)=O)cc(Cl)c12`, the IC50 is 1270 nM in assay [1] and 290 nM in assay [2].

Take `CN1CCC(NC(=O)c2ccc(-c3c(-c4ccc(N5CCN(C)CC5)cc4)n(C)c4nccc(Cl)c34)cc2)CC1`: the IC50 in assay [1] came out at 872 nM; in assay [2], 492 nM.

Take `Cn1c(-c2ccc(N3CCNCC3)cc2)c(-c2ccc(CO)cc2)c2c(Cl)ccnc21`: the IC50 turned out to be 13800 nM in assay [1] and 10600 nM in assay [2].

Consider `Clc1ccnc2[nH]c(-c3ccc(N4CCNCC4)cc3)cc12`, for which the IC50 in assay [3] is 40 nM; in assay [4], 20 nM.

Regarding `CN(C)Cc1ccc(-c2c(-c3ccc(N4CCN(C)CC4)cc3)n(C)c3nccc(Cl)c23)cc1`, the values for the IC50 in assay [1] and in assay [2] were 3300 nM and 1400 nM, respectively.

For `CN(C)Cc1ccc(-c2c(-c3ccc(N4CCNCC4)cc3)n(C)c3nc(C(N)=O)cc(Cl)c23)cc1`, in assay [1], the IC50 is greater than 30000 nM.

Regarding `CN1CCN(c2ccc(-c3cc4c(Cl)cc(C(N)=O)nc4n3C)cc2)CC1`, the IC50 in assay [1] was greater than 30000 nM; in assay [2] it was 400 nM.

What is called IC50 is the point on the concentration scale where inhibition reaches its midpoint.
